How the values were obtained:
[1] = system: infant gut microbiome; experiment: Infant fecal microbiome analysis (16S rDNA sequencing, B. infantis qPCR); assay type: in vivo, human
Procedure: Infant fecal samples were collected throughout the 60-day trial. Mothers collected their own fecal and breastmilk samples as well as fecal samples from their infants. They filled out weekly, biweekly and monthly health and diet questionnaires, as well as daily logs about their infant feeding and gastrointestinal tolerability (GI). Safety and tolerability were determined from maternal reports of infants' feeding, stooling frequency, and consistency (using a modified Amsterdam infant stool scale—watery, soft, formed, hard; Bekkali et al. 2009), as well as GI symptoms and health outcomes. Individual fecal samples were subjected to full microbiome analysis using Illumina sequencing based on 16S rDNA and qPCR with primers designed specifically for B. longum subsp. infantis strain.
Evaluation of EVC001 colonization. As previously described in Frese et al. (2017) (mSphere 2(6): e00501-00517) colonization is measured at baseline and post-feeding by quantitative PCR using specific primers for B. infantis. Colonization is considered when B. infantis abundance is greater than 10^5, but more preferably greater than 10^7 or 10^8 CFU/ug DNA. Colonization may also be described as a significant expansion of the total relative contribution of Bifidobacteriaceae to the infant gut microbiome.
Bacterial DNA Methods. The relative abundance of the stool bacteria at the phylum, class, order, family, and genus level was characterized by performing a sequence analysis of the V4 segment of the 16S rRNA gene using QIIME v1.9.1.

[2] = system: IL-1β, IL-2, IL-5, IL-6, IL-8, IL-10, IL-22, IFNγ, TNFα; experiment: Fecal cytokines, multiplexed immunoassay (MSD U-PLEX Inflammation Panel 1); assay type: in vivo, human; settings: for IFNγ Median (SD) / IL-1β Median (SD) / IL-2 Median (SD) / IL-5 Median (SD) / IL-6 Median (SD) / IL-8 Median (SD) / IL-10 Median (SD) / IL-22 Median (SD) / TNFα Median (SD): infant feces
Procedure: Multiplexed Immunoassays. Interleukin (IL)-1β, IL-2, IL-5, IL-6, IL-8, IL-10, IL-22, interferon (IFN) γ, and tumor necrosis factor (TNF) α were quantified from 80 mg of stool diluted 1:10 in Meso Scale Discovery (MSD; Rockville, Md.) diluent using the U-PLEX Inflammation Panel 1 (human) Kit according to the manufacturer's instructions. Standards and samples were measured in duplicate and blank values were subtracted from all readings. The plate was then read on a Sector Imager 2400 MSD Discovery Workbench analysis software. Statistical Analysis. Demographic differences between Control and EVC001-fed infants was analyzed using Fisher's Exact test for categorical data and Wilcoxon rank sum (Mann-Whitney U) test for continuous data. […] The relationship between fecal calprotectin concentration and % Bifidobacteriaceae was quantified using Spearman's Rho correlation, and the differences in calprotectin concentration between high (>25%) and low (<25%) Bifidobacteriaceae abundance was assessed using the Wilcoxon rank sum test. One subject with abnormally high fecal calprotectin concentration (greater than 3 standard deviations above the mean of both treatment and control data) was considered an extreme outlier and removed from the aforementioned calprotectin analyses. Wilcoxon rank sum tests were performed to assess relative abundance for each bacterial taxa and cytokine concentration differences. For radar plots, medians were adjusted to log scale, then normalized within each cytokine group from 0 to 1. Differences overtime within each cytokine group were evaluated using the Wilcoxon rank sum test. P-values were adjusted using the Bonferroni-Holms method and considered statistically significant if P<0.05. Statistical analyses were applied to determine the significance of global cytokine profile as determined by computing a Bray-Curtis distance metric translated into a principal coordinate analysis and visualized with EMPeror. Global cytokine profile differences by group status were then determined using a permutational multivariate analysis of variance (PERMANOVA), and significant P-values were determined using 999 Monte Carlo permutations. To assess the relationship between the global cytokine profile and the microbiome, we used a Procrustes analysis. The taxonomic operational taxonomic unit (OTU) table at the family level was computed using QIIME, and the cytokine table was used to generate a distance matrix for each, using a weighted UniFrac for 16S and Bray-Curtis for the cytokine. We performed a principal coordinate analysis separately on the two matrices and used a Procrustes analysis as implemented in QIIME to rotate, translate, and scale the matrices. The resulting transformed matrices were plotted using EMPeror. P-values for the Procrustes analysis were generated using Monte Carlo simulations (n=999). Raw correlation statistics were assigned the likelihood of these associations to be true positive associations by computing P-values via a Fisher's Z transform to normalize the distribution of the correlation scores.

[3] = infant feces, Day 6 (Baseline), before supplementation starts on Day 7
[4] = Day 40 compared to Day 6, within EVC001-fed infants
[5] = Day 60 compared to Day 6, within EVC001-fed infants
[6] = Day 6 (Baseline), before supplementation starts on Day 7

Bifidobacterium longum subsp. infantis EVC001 [B. infantis EVC001]
Levels of proteobacteria and enterococci ([1]; colonized infants versus unsupplemented): much lower levels | B. infantis colonization level of infant gut ([1]; continued after supplementation ended (Day 28) while breast milk consumed): higher than 10^10 cfu/g feces | Bacteroidaceae % Relative Abundance [1, 3]: 0.1040% | Bifidobacteriaceae % Relative Abundance [1, 3]: 0.1472% | Clostridiaceae % Relative Abundance [1, 3]: 0.0874% | Enterobacteriaceae % Relative Abundance [1, 3]: 0.2743% | Enterococcaceae % Relative Abundance [1, 3]: 0.0539% | Lachnospiraceae % Relative Abundance [1, 3]: 0.0197% | Other families % Relative Abundance [1, 3]: 0.1357% | Staphylococcaceae % Relative Abundance [1, 3]: 0.0543% | Streptococcaceae % Relative Abundance [1, 3]: 0.1169% | Veillonellaceae % Relative Abundance [1, 3]: 0.0065% | Bifidobacteriaceae % Relative Abundance ([1]; infant feces, Day 40): significantly higher | Enterococcaceae % Relative Abundance ([1]; infant feces, Day 40): 0.0045% | Lachnospiraceae % Relative Abundance ([1]; infant feces, Day 40): 0.0072% | Other families % Relative Abundance ([1]; infant feces, Day 40): 0.0215% | Staphylococcaceae % Relative Abundance ([1]; infant feces, Day 40): 0.0036% | Streptococcaceae % Relative Abundance ([1]; infant feces, Day 40): 0.0291% | Veillonellaceae % Relative Abundance ([1]; infant feces, Day 40): 0.0077% | Bifidobacteriaceae % Relative Abundance ([1]; infant feces, Day 40, listed as EVC001): 0.8712% | Enterobacteriaceae % Relative Abundance ([1]; infant feces, Day 60): 0.0427% | Enterococcaceae % Relative Abundance ([1]; infant feces, Day 60): 0.0082% | Lachnospiraceae % Relative Abundance ([1]; infant feces, Day 60): 0.0081% | Other families % Relative Abundance ([1]; infant feces, Day 60): 0.02443% | Staphylococcaceae % Relative Abundance ([1]; infant feces, Day 60): 0.0039% | Streptococcaceae % Relative Abundance ([1]; infant feces, Day 60): 0.0277% | Veillonellaceae % Relative Abundance ([1]; infant feces, Day 60): 0.0076% | Gut microbiome share of B. longum subsp. infantis ([1]; supplemented infants, on average, regardless of birthing mode): greater than 70% | Fecal IFNγ level change over time [2, 4]: significantly increased | Fecal IL-2 level change over time [2, 4]: significantly lower | Fecal IL-5 level change over time [2, 4]: significantly lower | Fecal IL-6 level change over time [2, 4]: significantly lower | Fecal IL-10 level change over time [2, 4]: significantly lower | Fecal IL-22 level change over time [2, 4]: significantly lower | Fecal TNFα level change over time [2, 4]: significantly lower | Fecal IFNγ level change over time [2, 5]: significantly higher | Fecal IL-2 level change over time [2, 5]: significantly lower | Fecal IL-5 level change over time [2, 5]: significantly lower | Fecal IL-6 level change over time [2, 5]: significantly lower | Fecal IL-10 level change over time [2, 5]: significantly lower | Fecal TNFα level change over time [2, 5]: significantly lower | Fecal IL-22 level change over time ([2]; Day 60 compared to Day 40, within EVC001-fed infants): significantly higher | Fecal cytokine levels overall ([2]; first 60 days postnatal, versus Control infants): significantly lower | IFNγ Median (SD) [2, 6]: 0.29 pg/mg | IL-1β Median (SD) [2, 6]: 38.65 pg/mg | IL-2 Median (SD) [2, 6]: 48.13 pg/mg | IL-5 Median (SD) [2, 6]: 16.53 pg/mg | IL-6 Median (SD) [2, 6]: 9.29 pg/mg | IL-8 Median (SD) [2, 6]: 48.35 pg/mg | IL-10 Median (SD) [2, 6]: 8.76 pg/mg | IL-22 Median (SD) [2, 6]: 4.22 pg/mg | TNFα Median (SD) [2, 6]: 26.71 pg/mg | IL-2 Median (SD) ([2]; Day 40): 3.36 pg/mg | IL-5 Median (SD) ([2]; Day 40): 1.48 pg/mg | IL-6 Median (SD) ([2]; Day 40): 0.48 pg/mg | IL-10 Median (SD) ([2]; Day 40): 0.55 pg/mg | TNFα Median (SD) ([2]; Day 40): 2.7 pg/mg | IFNγ Median (SD) ([2]; Day 60): 26.74 pg/mg | IL-1β Median (SD) ([2]; Day 60): 13.22 pg/mg | IL-2 Median (SD) ([2]; Day 60): 3.16 pg/mg | IL-5 Median (SD) ([2]; Day 60): 1.85 pg/mg | IL-6 Median (SD) ([2]; Day 60): 0.71 pg/mg | IL-8 Median (SD) ([2]; Day 60): 70.13 pg/mg | IL-10 Median (SD) ([2]; Day 60): 0.46 pg/mg | IL-22 Median (SD) ([2]; Day 60): 3.54 pg/mg | TNFα Median (SD) ([2]; Day 60): 3.97 pg/mg
